Source: patent US11179393B2, “Methods of treating or preventing preterm labor” (priority 2014, dated 2021)

Tested on: muscarinic receptor
Assay: Test on salivary secretion in rat (oxotremorine-induced), compared with rhythmic bladder contraction test
Assay type: in vivo
Conditions: anesthetized Wistar rat; ID50 = 50% inhibition of saliva, ED30 = 30% inhibition of bladder contraction
Procedure: a. Test on Rhythmic Bladder Contraction in Rat
A female Wistar rat (130-200 g) is subjected to urethane anesthesia (1.0 g/kg s.c.), followed by ligation of the ureter on the kidney side. A urethral catheter is allowed to remain in the bladder, and about 1.0 mL of physiological saline is injected into the bladder through the catheter to cause rhythmic bladder contraction. Intravesical pressure is measured by a pressure transducer. After rhythmic contraction continues stable for at least 5 minutes, the test compound is cumulatively administered from the external jugular vein. Five to ten minutes later, the intravesical pressure is measured. An inhibition ratio of bladder contraction is determined compared with the bladder contraction before administration of the test compound and the dose of the test compound required for 30% inhibition of the bladder contraction before administration is designated as ED30.
b. Test on Salivary Secretion in Rat
A male Wistar rat (160-190 g) is subjected to anesthesia with urethane (0.8 g/kg i.p.), and the test compound is administered (to the control group: solvent). Fifteen minutes later, 0.8 μmol/kg of oxotremorine is administered. In each case, the drug is administered through the femoral artery. The saliva secreted for 5 minutes after the administration of oxotremorine is collected and weighed. […]

For CN1[C@@H]2CC[C@H]1C[C@@H](OC(=O)C(CO)c1ccccc1)C2 (stereo partly shown) [atropine], the “ID50 value (salivary secretion) relative to ED30 value (rhythmic bladder contraction)” value was “substantially the same”.
